# Patent US10464912B2, “Choline cocrystal of epalrestat” (BIONEVIA PHARMACEUTICALS, INC., priority 2008, dated 2019)
# Conditions: ambient temperature, after approximately 24 hours, FIG. 6A
# Protocol: Samples were taken at approximately 1, 3, 6, and 24 hours, and analyzed by UV spectrophotometry using a SpectraMax M2 UV-VIS spectrophotometer. Wavelength calibration and photometric accuracy were performed using the SpectraMax Pro 5 software as an internal calibration of the instrument. The detector was zeroed with a reference well on a microplate filled with water on which data were obtained, and those data were subtracted from collected data. Samples were analyzed in the UV range at room temperature in the wells of a 96-well quartz plate.
structure (smiles),measurement,value
CC(/C=C1\SC(=S)N(CC(=O)O)C1=O)=C\c1ccccc1 [choline hydrogen diepalrestat],dissolved concentration of epalrestat (solubility in water),249 µg/mL
